Test results from ChEMBL document CHEMBL1201862, “PubChem BioAssay data set” (2004).
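In this assay, cells in 96-well plates receive the compound at five concentrations for 48 hours. Endpoints are linearly interpolated between the surrounding concentrations. At the GI50, growth is halved.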 Activity calls are given as the source filed them. No stated cut-off is given here; in the data, active = GI50 up to about 1.1 µM and inactive = higher.

Experiments:
Assay in all cases: inhibition of tumour cell growth, NCI panel, 48 h
SW-620 = system: SW-620
M14 = system: M14
ACHN = system: ACHN
SF-295 = system: SF-295
SNB-75 = system: SNB-75
NCI-H460 = system: NCI-H460
SK-MEL-5 = system: SK-MEL-5
TK-10 = system: TK-10
A549 = system: A549
NCI-H226 = system: NCI-H226
HL-60 = system: HL-60
CCRF-CEM = system: CCRF-CEM
OVCAR-8 = system: OVCAR-8
UACC-257 = system: UACC-257
SN12C = system: SN12C
CAKI-1 = system: CAKI-1
IGROV-1 = system: IGROV-1

Row | SMILES | GI50 (SW-620) | GI50 (M14) | GI50 (ACHN) | GI50 (SF-295) | GI50 (SNB-75) | GI50 (NCI-H460) | GI50 (SK-MEL-5) | GI50 (TK-10) | GI50 (A549) | GI50 (NCI-H226) | GI50 (HL-60) | GI50 (CCRF-CEM) | GI50 (OVCAR-8) | GI50 (UACC-257) | GI50 (SN12C) | GI50 (CAKI-1) | GI50 (IGROV-1)
1 | O=C(CSc1nnc(-c2ccc(/N=C\c3ccc(Cl)cc3)cc2)o1)Nc1ccccc1 | 44.9 µM (inactive) | 76 µM (inactive) | > 100 µM (inactive) | 94.4 µM (inactive) | 94.8 µM (inactive) | > 100 µM (inactive) | 89.9 µM (inactive) | > 100 µM (inactive) | > 100 µM (inactive) | > 100 µM (inactive) | 34.4 µM (inactive) | 32.9 µM (inactive) | > 100 µM (inactive) | > 100 µM (inactive) | > 100 µM (inactive) | – | –
2 | O=C(O)Cc1cc(=O)oc2cc(O)c(Cl)cc12 | > 100 µM (inactive) | > 100 µM (inactive) | > 100 µM (inactive) | > 100 µM (inactive) | 28.6 µM (inactive) | > 100 µM (inactive) | > 100 µM (inactive) | > 100 µM (inactive) | > 100 µM (inactive) | > 100 µM (inactive) | > 100 µM (inactive) | > 100 µM (inactive) | > 100 µM (inactive) | – | > 100 µM (inactive) | > 100 µM (inactive) | > 100 µM (inactive)
3 | CCc1nc2ccccc2c(=O)n1/N=C(\N=N\c1ccc(Cl)cc1)c1ccccc1 | 31.3 µM (inactive) | 34.2 µM (inactive) | 31.8 µM (inactive) | 25 µM (inactive) | 14.6 µM (inactive) | 27.4 µM (inactive) | 18.4 µM (inactive) | 31 µM (inactive) | 23.3 µM (inactive) | 21.8 µM (inactive) | 42.4 µM (inactive) | 65.8 µM (inactive) | 35.2 µM (inactive) | 13.2 µM (inactive) | 36 µM (inactive) | 17 µM (inactive) | 34 µM (inactive)
4 | CCOC(=O)CCC1(C(=O)OCC)CCCC1=O (stereo unspecified) | – | > 100 µM (inactive) | > 100 µM (inactive) | > 100 µM (inactive) | > 100 µM (inactive) | > 100 µM (inactive) | > 100 µM (inactive) | > 100 µM (inactive) | > 100 µM (inactive) | > 100 µM (inactive) | > 100 µM (inactive) | > 100 µM (inactive) | > 100 µM (inactive) | > 100 µM (inactive) | > 100 µM (inactive) | > 100 µM (inactive) | > 100 µM (inactive)
5 | CC(=O)NC(CCCNC(=O)OCc1ccccc1)C(=O)O (stereo unspecified) | > 100 µM (inactive) | > 100 µM (inactive) | > 100 µM (inactive) | > 100 µM (inactive) | 68.1 µM (inactive) | > 100 µM (inactive) | > 100 µM (inactive) | > 100 µM (inactive) | > 100 µM (inactive) | > 100 µM (inactive) | – | > 100 µM (inactive) | > 100 µM (inactive) | > 100 µM (inactive) | > 100 µM (inactive) | > 100 µM (inactive) | > 100 µM (inactive)
6 | CC1(O)CCn2c(=O)c3cc4ccccc4cc3c(=O)n2C1O (stereo unspecified) | > 100 µM (inactive) | – | > 100 µM (inactive) | > 100 µM (inactive) | – | > 100 µM (inactive) | > 100 µM (inactive) | > 100 µM (inactive) | > 100 µM (inactive) | > 100 µM (inactive) | > 100 µM (inactive) | > 100 µM (inactive) | > 100 µM (inactive) | > 100 µM (inactive) | > 100 µM (inactive) | > 100 µM (inactive) | > 100 µM (inactive)
7 | C=CCNC(=O)/C=C\C(=O)O | > 100 µM (inactive) | > 100 µM (inactive) | > 100 µM (inactive) | > 100 µM (inactive) | > 100 µM (inactive) | > 100 µM (inactive) | > 100 µM (inactive) | > 100 µM (inactive) | > 100 µM (inactive) | > 100 µM (inactive) | > 100 µM (inactive) | > 100 µM (inactive) | > 100 µM (inactive) | > 100 µM (inactive) | > 100 µM (inactive) | > 100 µM (inactive) | > 100 µM (inactive)
8 | CC(=O)O[C@H]1C(=O)[C@@]2(C)C(C(OC(=O)c3ccccc3)[C@]3(O)CC(OC(=O)C(O)C(NC(=O)c4ccc(C(F)(F)F)cc4)c4ccccc4)C(C)=C1C3(C)C)[C@]1(OC(C)=O)CO[C@@H]1C[C@@H]2O (stereo partly specified) | 0.0552 µM (active) | 0.0682 µM (active) | 1.9 µM (inactive) | 0.239 µM (active) | 0.00375 µM (active) | 0.103 µM (active) | 0.0942 µM (active) | 1.95 µM (inactive) | 0.218 µM (active) | 0.0977 µM (active) | 0.0951 µM (active) | 0.175 µM (active) | 0.161 µM (active) | 0.236 µM (active) | 0.159 µM (active) | 0.076 µM (active) | 0.183 µM (active)
9 | O=C(/C=C/c1c(O)ccc2ccccc12)c1ccc2ccccc2c1 | > 100 µM (inactive) | – | > 100 µM (inactive) | > 100 µM (inactive) | > 100 µM (inactive) | > 100 µM (inactive) | – | > 100 µM (inactive) | > 100 µM (inactive) | > 100 µM (inactive) | > 100 µM (inactive) | > 100 µM (inactive) | > 100 µM (inactive) | > 100 µM (inactive) | > 100 µM (inactive) | > 100 µM (inactive) | > 100 µM (inactive)
10 | Cc1ccc2nc3cc(C)c(=O)cc-3sc2c1 | > 100 µM (inactive) | > 100 µM (inactive) | 57.7 µM (inactive) | 94.2 µM (inactive) | 18.7 µM (inactive) | > 100 µM (inactive) | 44.9 µM (inactive) | > 100 µM (inactive) | 53.5 µM (inactive) | 73.1 µM (inactive) | 3.11 µM (inactive) | 8.95 µM (inactive) | 56 µM (inactive) | 54.6 µM (inactive) | > 100 µM (inactive) | 39.7 µM (inactive) | > 100 µM (inactive)
11 | CC(=O)Nc1ccccc1-c1nc2ccccc2nc1C | > 100 µM (inactive) | > 100 µM (inactive) | > 100 µM (inactive) | > 100 µM (inactive) | 81.5 µM (inactive) | > 100 µM (inactive) | > 100 µM (inactive) | > 100 µM (inactive) | > 100 µM (inactive) | > 100 µM (inactive) | > 100 µM (inactive) | > 100 µM (inactive) | > 100 µM (inactive) | > 100 µM (inactive) | > 100 µM (inactive) | > 100 µM (inactive) | > 100 µM (inactive)
12 | O=c1[nH]c(C2CCCCC2)nc2cc(Cl)ccc12 | > 100 µM (inactive) | – | > 100 µM (inactive) | 92.7 µM (inactive) | 55.6 µM (inactive) | – | > 100 µM (inactive) | > 100 µM (inactive) | > 100 µM (inactive) | > 100 µM (inactive) | – | – | > 100 µM (inactive) | > 100 µM (inactive) | > 100 µM (inactive) | > 100 µM (inactive) | > 100 µM (inactive)
